Test results published in ChEMBL document CHEMBL5223150, “Targeting the PI3K/AKT/mTOR Signaling Pathway in the Treatment of Human Diseases: Current Status, Trends, and Solutions” (J Med Chem, 2022).

Assay: Metabolic stability in human liver microsomes assessed as compound remaining after 1 hr
Format: ADME, Microsome
Conditions: read-out: Stability

Structure (SMILES): O=C(N1CCN(c2ncnc3[nH]nc(Cl)c23)CC1)C1(c2ccc(Cl)c(Cl)c2)CCNCC1
- remaining at 1 h: 80%
